Assay results reported in US7910548B2, “Methods for treating obesity” (Amylin Pharmaceuticals, Inc., priority 1997, dated 2011).
Bridges are numbered along the chain shown (N, C = ends). Where no end group is shown, it is not given here.

Assays:
[1] = Measurement of body weight in insulin-using Type II diabetes patients, 4-week study; type: in vivo, human; details: 4 weeks, change from baseline
Description: Study participants were males and females 25 to 78 years of age with a history of Type II diabetes mellitus requiring treatment with insulin for at least 6 months prior to the pre-screening visit. […] The study employed methods described in Thompson et al., Diabetes 46:632-636 (1997). Following a placebo lead-in period, patients were randomized to receive placebo or one of three dose regimens of ^25,28,29Pro-h-amylin (pramlintide) for 4 weeks: 30 μg QID (before breakfast, lunch, dinner and evening snack), 60 μg TID (before breakfast, lunch and dinner) or 60 μg QID (before breakfast, lunch, dinner and evening snack). Throughout the study drug period, patients self-administered four injections of study drug daily, within 15 minutes of each meal and the evening snack. During the double-blind period, patients randomized to pramlintide 60 μg TID administered placebo before the evening snack. Both pramlintide and placebo were administered as separate injections into the subcutaneous tissue of the anterior abdominal wall; the specific site was alternated after each injection. Patients were instructed to remain on their usual diet, insulin and exercise regimens throughout the study, unless otherwise instructed by the investigator, and to abstain from alcoholic beverages prior to all clinic visits.

[2] = Tritiated glucose gastric emptying assay; type: in vivo, rat
Description: In a phenol red method, which is described in Example 7 below, conscious rats receive by gavage an acoloric gel containing methyl cellulose and a phenol red indicator. Twenty minutes after gavage, animals are anesthetized using halothane, the stomach exposed and clamped at the pyloric and lower esophageal sphincters, removed and opened into an alkaline solution. Stomach content may be derived from the intensity of the phenol red in the alkaline solution, measured by absorbance at a wavelength of 560 nm. In a tritiated glucose method, which is described in Example 8 below, conscious rats are gavaged with tritiated glucose in water. The rats are gently restrained by the tail, the tip of which is anesthetized using lidocaine. Tritium in the plasma separated from tail blood is collected at various timepoints and detected in a beta counter. Test compounds are normally administered about one minute before gavage.
Conscious, non-fasted, Harlan Sprague Dawley rats were restrained by the tail, the tip of which was anesthetized using 2% lidocaine. Tritium in plasma separated from tail blood collected 0, 15, 30, 60, 90 and 120 minutes after gavage was detected in a beta counter.

[3] = target: amylin receptors in membranes of rat basal forebrain (nucleus accumbens and surrounding regions) (rat); test: competition with 125I-rat amylin on rat basal forebrain membranes

Molecule: CC[C@H](C)[C@H](NC(=O)[C@@H]1CCCN1C(=O)CNC(=O)[C@H](Cc1ccccc1)NC(=O)[C@H](CC(N)=O)NC(=O)[C@H](CC(N)=O)NC(=O)[C@H](CO)NC(=O)[C@H](CO)NC(=O)[C@H](Cc1c[nH]cn1)NC(=O)[C@@H](NC(=O)[C@H](CC(C)C)NC(=O)[C@H](Cc1ccccc1)NC(=O)[C@H](CC(N)=O)NC(=O)[C@H](C)NC(=O)[C@H](CC(C)C)NC(=O)[C@H](CCCNC(=N)N)NC(=O)[C@H](CCC(N)=O)NC(=O)[C@@H](NC(=O)[C@H](C)NC(=O)[C@@H]1CSSC[C@H](NC(=O)[C@@H](N)CCCCN)C(=O)N[C@@H](CC(N)=O)C(=O)N[C@@H]([C@@H](C)O)C(=O)N[C@@H](C)C(=O)N[C@@H]([C@@H](C)O)C(=O)N1)[C@@H](C)O)C(C)C)C(=O)N[C@@H](CC(C)C)C(=O)N1CCC[C@H]1C(=O)N1CCC[C@H]1C(=O)N[C@H](C(=O)N[C@@H](CC(N)=O)C(=O)N[C@H](C(=O)NCC(=O)N[C@@H](CO)C(=O)N[C@@H](CC(N)=O)C(=O)N[C@H](C(=O)N[C@@H](Cc1ccc(O)cc1)C(N)=O)[C@@H](C)O)C(C)C)[C@@H](C)O [Pramlintide, ^25,28,29Pro-h-amylin]
- Body Weight: Change at Week 4, Median ([1]; 30 μg QID subcutaneous): -0.45 kg
- Body Weight: Change at Week 4, Median ([1]; 60 μg QID subcutaneous): -0.45 kg
- Body Weight: Change at Week 4, Median ([1]; 60 μg TID subcutaneous): -1.05 kg

Molecule: rat amylin
- ED50 derived from the logistic fit (plasma tritium AUC over 30 minutes) ([2]; non-fasted Harlan Sprague Dawley rats, subcutaneous 1 minute before gavage): 0.35 μg
- Absorption of the label (plasma tritium) ([2]; subcutaneous injection, 0.1-100 μg): dose-dependently slowed and/or delayed the absorption of the label

B1: ^2,7Cyclo-[^2Asp, ^7Lys]-h-Amylin (peptide)
peptide: KDNTATKATQRLANFLVHSSNNFGAILSSTNVGSNTY
modifications: lactam 2-7; ends not checked
- IC50 [3]: 0.31 nM
